The target of the test is T1, porcine pancreatic α-amylase (Sus scrofa, UniProt P00690).
T1 construct: purchased Megazyme, Inc
T1 sequence (P00690 16-511): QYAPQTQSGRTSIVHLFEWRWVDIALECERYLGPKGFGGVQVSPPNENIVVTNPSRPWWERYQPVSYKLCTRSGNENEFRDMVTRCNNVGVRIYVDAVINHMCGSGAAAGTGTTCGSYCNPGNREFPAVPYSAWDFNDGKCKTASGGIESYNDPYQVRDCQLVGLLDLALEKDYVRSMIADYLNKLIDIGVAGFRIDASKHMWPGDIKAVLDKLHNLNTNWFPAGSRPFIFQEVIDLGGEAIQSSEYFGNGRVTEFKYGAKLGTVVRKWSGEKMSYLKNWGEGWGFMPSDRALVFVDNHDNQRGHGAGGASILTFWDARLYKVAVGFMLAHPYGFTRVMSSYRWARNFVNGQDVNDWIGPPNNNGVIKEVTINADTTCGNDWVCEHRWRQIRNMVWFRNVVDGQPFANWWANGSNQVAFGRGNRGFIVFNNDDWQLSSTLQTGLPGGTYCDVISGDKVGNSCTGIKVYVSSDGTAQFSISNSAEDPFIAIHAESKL
The experiment in a line: colorimetric starch-iodine assay of amylase-mediated starch hydrolysis. The test is classed as biochemical. Conditions: read-out: Fraction Inhibited (starch-iodine assay).

Method: The effectiveness of GMα (panel A) and GMβ (panel) to inhibit starch hydrolysis (1 mg/ml) mediated by porcine pancreatic α-amylase (1 μM) is shown as a function of the concentration of GMα and GMβ. The Fraction of Reaction Inhibited was calculated using U/ml values determined from the iodine-starch assay as described by (ref), with U/ml=(As62 control−As62 sample)/(As62 starch×20 min×0.1 ml reaction volume), a value that can be interpreted as mg of starch hydrolyzed per minute. The Fraction of “Unfolded” Starch was calculated in the absence of enzyme as A562 taken in the presence of GMα (panel C) and GMβ (panel D) divided by A562 taken in the absence of the GM. General solution conditions are 20 mM potassium phosphate, pH 7, 30° C.;
A standard curve was constructed using 100 μL of 6 concentrations (0-1.0 mg/ml) and 100 μL of soluble starch. A total of 100 μL of 1 mg/ml of soluble starch+/−varying concentrations of GMs were incubated for 20 minutes at 30° C.+/−5 μL enzyme, for a total concentration of 1 μM PPA/well, and the absorbance read at 520 nm.

With `C[C@H]1O[C@H](O[C@H]2[C@H](O)[C@@H](O)[C@@H](O[C@H]3[C@H](O)[C@@H](O)C(O)O[C@@H]3CO)O[C@@H]2CO)[C@H](O)[C@@H](O)[C@@H]1N[C@H]1C=C(CO)[C@@H](O)[C@H](O)[C@H]1O` (stereo partly shown) [Acarbose, acarbose], the inhibition at 400 µM was 79%.

The record behind these values is patent US20190046558A1, “COMPOSITION AND METHODS OF INHIBITING AMYLASE-MEDIATED HYDROLYSIS OF ALPHA (1 to 4)-LINKED GLUCOSE POLYMERS” (priority 2015, published 2019).
